From US10420734B2, “Method of treating cancer using selective estrogen receptor modulators” (Duke University, priority 2014, dated 2019)
Like-named read-outs stand apart in the source and are kept apart here.

What was measured:
[1] = cited from earlier work
ESR1 [2] = molecular target: T1, ESR1 (Homo sapiens, UniProt P03372); assay: ESR1 expression in MCF7 cells (immunoblot, mRNA, MG132 pre-treatment); type: cell-based
T1 sequence (P03372 1-595): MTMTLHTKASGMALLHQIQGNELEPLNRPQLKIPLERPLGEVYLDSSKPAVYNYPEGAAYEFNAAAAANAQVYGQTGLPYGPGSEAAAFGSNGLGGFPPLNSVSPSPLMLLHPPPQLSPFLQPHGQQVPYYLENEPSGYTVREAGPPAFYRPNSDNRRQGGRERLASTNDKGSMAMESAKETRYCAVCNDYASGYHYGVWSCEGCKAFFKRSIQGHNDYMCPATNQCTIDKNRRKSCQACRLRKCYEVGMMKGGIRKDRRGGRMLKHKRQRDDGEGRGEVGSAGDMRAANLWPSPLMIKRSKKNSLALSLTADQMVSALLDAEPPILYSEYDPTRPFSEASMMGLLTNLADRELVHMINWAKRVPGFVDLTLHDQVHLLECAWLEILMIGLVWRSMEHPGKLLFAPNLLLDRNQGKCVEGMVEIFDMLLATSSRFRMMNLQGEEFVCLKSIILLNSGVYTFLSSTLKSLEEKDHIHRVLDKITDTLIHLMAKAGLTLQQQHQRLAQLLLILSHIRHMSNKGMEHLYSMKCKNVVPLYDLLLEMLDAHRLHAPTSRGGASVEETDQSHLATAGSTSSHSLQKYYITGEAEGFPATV
Procedure: Protein expression was analyzed as described (Wittmann et al., (2007) Cancer Res 67 (19):9549-9560) using antibodies purchased from Sigma-Aldrich—A5441 (β-actin) and Santa Cruz Biotechnology—sc-6259 (cytokeratin 18), sc-20680 (lamin A), sc-5546 (α-tubulin) and sc-8005 (ESR1).
(§1) Expression of ESR1 and loading control cytokeratin 18 (CK18—FIG. 7A) in whole cell extracts were detected by immunoblot (top). ESR1 levels relative to CK18 were quantitated by densitometry using Adobe Photoshop (bottom). […] ESR1 expression was detected as in FIG. 6A. For FIGS. 6C-6D, LTED MCF7 cells were plated in phenol red free media supplemented with FBS that was stripped of growth factors twice using charcoal. For FIG. 6C, after 48 hours, cells were treated for 24 hours with E2 (10^−7 M) or SERDs (10^−6 M) and ESR1 was analyzed as in FIG. 6A.

ESR1 [3] = molecular target: T1, ESR1; assay: ESR1 expression in LTED MCF7 cells (immunoblot); type: cell-based; details: 24 hours, SERDs 10^-6 M
Procedure: MCF7 and SKBR3 cell lines were maintained in DMEM/F12 or RPMI media (Invitrogen), respectively, supplemented with 8% fetal bovine serum (FBS, Gemini), non-essential amino acids (Invitrogen), and sodium pyruvate (Invitrogen). Unless otherwise indicated, cells were plated for experiments in media lacking phenol red and supplemented with 8% charcoal stripped FBS (CFS, Gemini). LTED MCF7 cells were maintained and plated for experiments in phenol red free DMEM/F12 media supplemented with 8% CFS that had been charcoal stripped twice. 48 hours after plating, cells were treated with ESR1 ligands as indicated, and were harvested for immunoblot or real time quantitative PCR analysis 24 hours after treatment.
as §1

[4] = molecular target: T2, human estrogen receptor alpha (ESR1) (Homo sapiens, UniProt P03372); assay: ERE-luciferase reporter assay in transiently transfected SKBR3 cells (ESR1); type: cell-based
T2 construct: expressed in transfected cells; host or cells: SKBR3
T2 sequence (P03372 1-595): T1 sequence (P03372 1-595)
Procedure: The ability of RAD1901 (FIG. 5A) to modulate the […] estradiol (E2) dependent transcriptional activity of the human estrogen receptor alpha (ESR1) and human estrogen receptor beta (ESR2) was assessed in transiently transfected SKBR3 cells using a synthetic reporter gene. […] For FIG. 5B, SKBR3 cells were plated in phenol red free media supplemented with charcoal stripped FBS (CFS) 24 hours prior to transfection with an ERE-luciferase reporter together with ESR1 or ESR2 expression vectors. 24 hours after transfection, cells were treated with E2 (10 nM) together with RAD1901 (10^−10-10^−6 M) for 24 hours prior to harvest and analysis of luciferase activity normalized to co-transfected β-galactosidase control. […] For FIG. 5D, MCF7 cells were plated in phenol red free media supplemented with CFS 24 hours prior to treatment, and were treated with 10^−9 M E2 as well as with the indicated ligands (10^−11-10^−6 M) on days 1, 4, and 6 of an 8 day proliferation assay. DNA content as assessed by fluorescence was measured as a surrogate for cell proliferation. The relative increase in DNA fluorescence was calculated by normalizing to baseline values detected in a duplicate plate of cells that was harvested on day 1 prior to the initial treatment. […] For FIG. 5F, expression of ESR1 target genes in tumors was analyzed essentially as in (C).

CCNCCc1ccc(CN(CC)c2cc(OC)ccc2[C@@H]2CCc3cc(O)ccc3C2)cc1 [RAD1901, (R)-6-{2-{ethyl[4-(2-ethylaminoethyl)benzyl]amino}-4-methoxyphenyl}-5,6,7,8-tetrahydronaphthalen-2-ol]
induction of hot flashes ([1]; healthy postmenopausal women): induces hot flashes in healthy postmenopausal women in a dose dependent manner | hot flashes in clinical trials ([1]; higher doses tested): ineffective | hot flashes in clinical trials ([1]; lowest dose tested): effectively suppress hot flashes | brain penetrance ([1]; postmenopausal women): significant brain penetrance | ESR1 mRNA expression (ESR1 [2]): no effect | ESR1 expression (immunoblot) (ESR1 [2]; 24 hours, RAD1901 10^-11-10^-5 M): significantly downregulated | downregulation of ESR1 after pre-treatment with proteasome inhibitor MG132 (ESR1 [2]; MG132 1 hour pre-treatment, 6 hours ligand): completely blocked | ESR1 expression levels (ESR1 [3]): downregulated ESR1 expression | more potent inhibitor of ESR1 than of ESR2 ([4]; ERE-luciferase reporter): 100 fold | inhibition of E2-dependent activation of an ERE-luciferase reporter ([4]; ESR1 isoform, E2 10 nM, RAD1901 10^-10-10^-6 M, 24 hours): effectively inhibited
